# Data from ChEMBL document CHEMBL1649222, “In vitro antibacterial activity of acyl-lysyl oligomers against Helicobacter pylori” (Antimicrob Agents Chemother, 2009).
# The source made the active and inactive calls. No cut-off for these calls is given here. Non-standard residues stand in square brackets, D forms with d. Residues, ends and D or L forms follow the SMILES beside them. *: point of attachment. Lauroyl = CCCCCCCCCCCC(=O)*; 12Ado = NCCCCCCCCCCCC(=O)O
# Experiments:
# [1] = system: Helicobacter pylori; assay: Antimicrobial activity against Helicobacter pylori G27; type: functional
# [2] = system: Helicobacter pylori; assay: Antimicrobial activity against Helicobacter pylori 7.13; type: functional
# [3] = system: Helicobacter pylori; assay: Antimicrobial activity against Helicobacter pylori J99; type: functional
# [4] = system: Helicobacter pylori; assay: Antimicrobial activity against Helicobacter pylori HPAG1; type: functional
# [5] = system: Helicobacter pylori; assay: Antimicrobial activity against Helicobacter pylori SS1; type: functional
# [6] = Antimicrobial activity against Helicobacter pylori 26695; type: functional
# [7] = system: Helicobacter pylori; assay: Bactericidal activity against Helicobacter pylori G27 at 40 uM after 10 hrs; type: functional
# [8] = system: Helicobacter pylori; assay: Bactericidal activity against Helicobacter pylori 7.13 at 40 uM after 10 hrs; type: functional, organism-based
# [9] = system: Helicobacter pylori; assay: Bactericidal activity against Helicobacter pylori J99 at 40 uM after 10 hrs; type: functional
# [10] = system: Helicobacter pylori; assay: Antimicrobial activity against Helicobacter pylori G27 at MBC by time-kill analysis; type: functional
# [11] = system: Helicobacter pylori; assay: Antimicrobial activity against Helicobacter pylori 7.13 at MBC by time-kill analysis; type: functional
# [12] = system: Helicobacter pylori; assay: Antimicrobial activity against Helicobacter pylori J99 at MBC by time-kill analysis; type: functional
# [13] = system: Helicobacter pylori; assay: Antimicrobial activity against Helicobacter pylori G27 at 2 times MBC by time-kill analysis; type: functional
# [14] = system: Helicobacter pylori; assay: Antimicrobial activity against Helicobacter pylori 7.13 at 2 times MBC by time-kill analysis; type: functional
# [15] = system: Helicobacter pylori; assay: Antimicrobial activity against Helicobacter pylori J99 at 2 times MBC by time-kill analysis; type: functional
# [16] = system: Helicobacter pylori; assay: Bactericidal activity against Helicobacter pylori G27 preincubated at 4 degC for 1 hr; type: functional
# [17] = system: Helicobacter pylori; assay: Bactericidal activity against Helicobacter pylori G27 preincubated at 50 degC for 1 hr; type: functional
# [18] = system: Helicobacter pylori; assay: Bactericidal activity against Helicobacter pylori G27 preincubated at 55 degC for 1 hr; type: functional
# [19] = system: Helicobacter pylori; assay: Bactericidal activity against Helicobacter pylori G27 preincubated at 60 degC for 1 hr; type: functional
# [20] = system: Helicobacter pylori; assay: Bactericidal activity against Helicobacter pylori G27 preincubated at 95 degC for 1 hr; type: functional
# [21] = system: Helicobacter pylori; assay: Bactericidal activity against Helicobacter pylori G27 preincubated at 37 degC for 1 hr; type: functional
# [22] = system: Helicobacter pylori; assay: Bactericidal activity against Helicobacter pylori G27 preincubated at 42 degC for 1 hr; type: functional
# [23] = system: Helicobacter pylori; assay: Bactericidal activity against Helicobacter pylori G27 at pH 4.5; type: functional
# [24] = system: Helicobacter pylori; assay: Bactericidal activity against Helicobacter pylori G27 at pH 6.9; type: functional
# [25] = Toxicity in horse erythrocytes assessed as hemolytic activity at 0.625 to 40 uM; type: cell-based, Equus caballus; conditions: erythrocyte
# [26] = Toxicity in horse erythrocytes assessed as hemolytic activity at 80 uM; type: cell-based, Equus caballus; conditions: erythrocyte
smiles,measurement,setting,value
CCCCCCCCCCCC(=O)N[C@@H](CCCCN)C(=O)NCCCCCCCC(=O)N[C@@H](CCCCN)C(=O)NCCCCCCCC(=O)N[C@@H](CCCCN)C(=O)NCCCCCCCC(=O)N[C@@H](CCCCN)C(=O)NCCCCCCCC(=O)N[C@@H](CCCCN)C(=O)NCCCCCCCC(=O)N[C@@H](CCCCN)C(N)=O,MBC,[1],> 100 µM
same,MIC,[1],25 µM
CCCCCCCCCCCC(=O)N[C@@H](CCCCN)C(=O)NCCCCCCCC(=O)N[C@@H](CCCCN)C(=O)NCCCCCCCC(=O)N[C@@H](CCCCN)C(=O)NCCCCCCCC(=O)N[C@@H](CCCCN)C(=O)NCCCCCCCC(=O)N[C@@H](CCCCN)C(=O)NCCCCCCCC(=O)N[C@@H](CCCCN)C(=O)NCCCCCCCC(=O)N[C@@H](CCCCN)C(=O)NCCCCCCCC(=O)N[C@@H](CCCCN)C(N)=O,MBC,[1],> 100 µM
same,MIC,[1],25 µM
CCCCCCCCCCCC(=O)N[C@@H](CCCCN)C(=O)N[C@@H](CCCCN)C(=O)NCCCCCCCCCCCC(=O)N[C@@H](CCCCN)C(=O)N[C@@H](CCCCN)C(=O)NCCCCCCCCCCCC(=O)N[C@@H](CCCCN)C(N)=O (Lauroyl-KK[12Ado]KK[12Ado]K-NH2),MBC,[1],15 µM
same,MIC,[1],6.5 µM
same,MBC,[2],14.5 µM
same,MIC,[2],< 9 µM
same,MBC,[3],20 µM
same,MIC,[3],10.5 µM
same,MBC,[4],40 µM
same,MIC,[4],10.5 µM
same,MBC,[5],45 µM
same,MIC,[5],25.5 µM
same,MBC,[6],70 µM
same,MIC,[6],25 µM
same,Activity,[7],Active
same,Activity,[8],Active
same,Activity,[9],Active
same,Time,[10],6.1 h
same,Time,[11],6.1 h
same,Time,[12],3.8 h
same,Time,[13],2.7 h
same,Time,[14],3.5 h
same,Time,[15],1.8 h
same,Activity,[16],Active
same,Activity,[17],Active
same,Activity,[18],Active
same,Activity,[19],Active
same,Activity,[20],Active
same,Activity,[21],Active
same,Activity,[22],Active
same,Activity,[23],inactive
same,Activity,[24],Active
same,Activity,[25],Non-toxic
same,Activity,[26],Toxic
